From patent publication US10538555B2, “Macrocyclic inhibitors of the PD-1/PD-L1 and CD80(B7-1)/PD-L1 protein/protein interactions” (BRISTOL-MYERS SQUIBB COMPANY, priority 2014, dated 2020)
*1 amine or outer side, *2 acyl side, *3 side chain or, on linkers, in order; H or OH if unused. Where a SMILES comes first, the peptide text is derived from it. Bridges are numbered along the chain shown (N, C = ends). [ ]: non-standard residue; d: D form. Phe(3,4,5-F3) = N[C@@H](Cc1cc(F)c(F)c(F)c1)C(=O)O; Phe(3,4-F2) = N[C@@H](Cc1ccc(F)c(F)c1)C(=O)O; NMeF = CN[C@@H](Cc1ccccc1)C(=O)O; X1 = O=C([C@H]1COCCN1[*:1])[*:2]; dHyp = O=C(O)[C@H]1C[C@H](O)CN1; NMeNle = CCCC[C@H](NC)C(=O)O; Orn = NCCC[C@H](N)C(=O)O

Molecular target: T1, Human PD-L1/PD-1 (Homo sapiens, UniProt Q9NZQ7)
T1 construct: TVMV protease cleavage site (C); made in house; host or cells: HEK293T cells
T1 sequence (Q9NZQ7 with tags, fused parts or gaps): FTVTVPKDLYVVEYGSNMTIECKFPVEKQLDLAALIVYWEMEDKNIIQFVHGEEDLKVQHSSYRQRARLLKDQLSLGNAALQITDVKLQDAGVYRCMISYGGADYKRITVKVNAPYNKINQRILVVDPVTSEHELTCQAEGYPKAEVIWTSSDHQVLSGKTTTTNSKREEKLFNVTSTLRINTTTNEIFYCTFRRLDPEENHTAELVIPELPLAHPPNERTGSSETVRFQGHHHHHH
Experiment: HTRF Human PD-L1/PD-1 binding assay (PD-1-Ig/PD-L1-His)
Conditions: PD-L1-His 10 nM, PD-1-Ig 20 nM; class symbol; read-out: HTRF Human PD-L1/PD-1 Binding Assay IC50 Range
Summary of the method: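 HTRF competition using HEK293T-expressed human PD-1(25-167)-Ig at 20 nM and PD-L1(18-239)-His at 10 nM, compound incubated first with PD-L1 for 15 min, then with PD-1 for 15 min. Signal read as 665/620 nm ratio 30 min after adding Eu anti-Ig and APC anti-His antibodies.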

`CCCC[C@H]1C(=O)N2C[C@@H](O)C[C@@H]2C(=O)N[C@@H](CC(=O)O)C(=O)N[C@@H](C(C)C)C(=O)N(C)[C@@H](Cc2ccccc2)C(=O)N[C@@H](CCC(=O)O)C(=O)N2C[C@@H](O)C[C@@H]2C(=O)N[C@@H](Cc2c[nH]c3ccccc23)C(=O)N[C@@H](Cc2ccc(O)cc2)C(=O)N[C@@H](CC(C)C)C(=O)N[C@H](C(=O)NCC(N)=O)CSCC(=O)N[C@@H](Cc2ccc(F)c(F)c2)C(=O)N(C)[C@@H](Cc2ccccc2)C(=O)N1C` [Example 9277] ({CH2CO}-[Phe(3,4-F2)][NMeF][NMeNle][dHyp]DV[NMeF]E[dHyp]WYLCG-NH2; thioether N-13) gave an IC50 of 1 to 9.9 nM.
`CCCC[C@H]1C(=O)N2C[C@@H](O)C[C@@H]2C(=O)N[C@@H](CC(=O)O)C(=O)N[C@@H](C(C)C)C(=O)N(C)[C@@H](Cc2ccccc2)C(=O)N[C@@H](CCC(=O)O)C(=O)N2C[C@@H](O)C[C@@H]2C(=O)N[C@@H](Cc2c[nH]c3ccccc23)C(=O)N[C@@H](Cc2ccc(O)cc2)C(=O)N[C@@H](CCCN)C(=O)N[C@H](C(=O)NCC(N)=O)CSCC(=O)N[C@@H](Cc2ccc(F)c(F)c2)C(=O)N(C)[C@@H](Cc2ccccc2)C(=O)N1C` [Example 9278] ({CH2CO}-[Phe(3,4-F2)][NMeF][NMeNle][dHyp]DV[NMeF]E[dHyp]WY[Orn]CG-NH2; thioether N-13) was tested, and the IC50 was 1 to 9.9 nM.
Work on `CCCC[C@H]1C(=O)N2C[C@@H](O)C[C@@H]2C(=O)N[C@@H](CC(=O)O)C(=O)N[C@@H](C(C)C)C(=O)N(C)[C@@H](Cc2ccccc2)C(=O)N[C@@H](CCC(=O)O)C(=O)N2CCOC[C@@H]2C(=O)N[C@@H](Cc2c[nH]c3ccccc23)C(=O)N[C@@H](Cc2ccc(O)cc2)C(=O)N[C@@H](CCCN)C(=O)N[C@H](C(=O)NCC(N)=O)CSCC(=O)N[C@@H](Cc2ccc(F)c(F)c2)C(=O)N(C)[C@@H](Cc2ccccc2)C(=O)N1C` [Example 9279] ({CH2CO}-[Phe(3,4-F2)][NMeF][NMeNle][dHyp]DV[NMeF]E[X1]WY[Orn]CG-NH2; thioether N-13) yielded an IC50 of 1 to 9.9 nM.
For `CCCC[C@H]1C(=O)N2CCOC[C@@H]2C(=O)N[C@@H](CC(=O)O)C(=O)N[C@@H](C(C)C)C(=O)N(C)[C@@H](Cc2ccccc2)C(=O)N[C@@H](CCC(=O)O)C(=O)N2C[C@@H](O)C[C@@H]2C(=O)N[C@@H](Cc2c[nH]c3ccccc23)C(=O)N[C@@H](Cc2ccc(O)cc2)C(=O)N[C@@H](CCCN)C(=O)N[C@H](C(=O)NCC(N)=O)CSCC(=O)N[C@@H](Cc2cc(F)c(F)c(F)c2)C(=O)N(C)[C@@H](Cc2ccccc2)C(=O)N1C` [Example 9280] ({CH2CO}-[Phe(3,4,5-F3)][NMeF][NMeNle][X1]DV[NMeF]E[dHyp]WY[Orn]CG-NH2; thioether N-13), the IC50 was 10 to 99.9 nM.
`CCCC[C@H]1C(=O)N2CCOC[C@@H]2C(=O)N[C@@H](CC(=O)O)C(=O)N[C@@H](C(C)C)C(=O)N(C)[C@@H](Cc2ccccc2)C(=O)N[C@@H](CCC(=O)O)C(=O)N2CCOC[C@@H]2C(=O)N[C@@H](Cc2c[nH]c3ccccc23)C(=O)N[C@@H](Cc2ccc(O)cc2)C(=O)N[C@@H](CC(C)C)C(=O)N[C@H](C(=O)NCC(N)=O)CSCC(=O)N[C@@H](Cc2ccc(F)c(F)c2)C(=O)N(C)[C@@H](Cc2ccccc2)C(=O)N1C` [Example 9281] ({CH2CO}-[Phe(3,4-F2)][NMeF][NMeNle][X1]DV[NMeF]E[X1]WYLCG-NH2; thioether N-13) gave an IC50 of 1 to 9.9 nM.
`CCCC[C@H]1C(=O)N2CCOC[C@@H]2C(=O)N[C@@H](CC(=O)O)C(=O)N[C@@H](C(C)C)C(=O)N(C)[C@@H](Cc2ccccc2)C(=O)N[C@@H](CCC(=O)O)C(=O)N2CCOC[C@@H]2C(=O)N[C@@H](Cc2c[nH]c3ccccc23)C(=O)N[C@@H](Cc2ccc(O)cc2)C(=O)N[C@@H](CCCN)C(=O)N[C@H](C(=O)NCC(N)=O)CSCC(=O)N[C@@H](Cc2cc(F)c(F)c(F)c2)C(=O)N(C)[C@@H](Cc2ccccc2)C(=O)N1C` [Example 9282] ({CH2CO}-[Phe(3,4,5-F3)][NMeF][NMeNle][X1]DV[NMeF]E[X1]WY[Orn]CG-NH2; thioether N-13) showed an IC50 of 10 to 99.9 nM.
